Measurements published in patent US8481541B2, “Pyrrolopyrazine kinase inhibitors” (Hoffmann-La Roche Inc., priority 2010, dated 2013).
pIC50: −log10 of the molar value.

How the values were obtained:
[1] = target: T1, h-jak3(810-1124) (JAK3 recombinant human kinase domain) (Homo sapiens, UniProt P52333); test: Determination of IC50 of Janus Kinase (JAK) inhibition, radioactive end-point 33P-ATP kinase assay, JAK3; assay type: biochemical; details: JAK3 kinase domain (810-1124), sf9; no additive; ATP 1.5 uM, peptide 50 uM, 20 minutes, room temperature; read-out: Ic50 h-jak3(810-1124)-sf9-c: no additive
T1 construct: Ic50 h-jak3(810-1124)-; made in house; host or cells: Sf9 insect cells
Source text: Determination of IC50 of Janus Kinase (JAK) Inhibition:
Enzymes and peptide substrate used are described below: • JAK1: Recombinant human kinase domain from Invitrogen (Cat # PV4774) • JAK3: Recombinant human kinase domain from Millipore (Cat # 14-629) or prepared. • JAK2: Recombinant human kinase domain from Millipore (Cat # 14-640) Substrate: N-terminally biotinylated 14-mer peptide derived from activation loop of JAK1 with sequence of the peptide substrate: Biotin-[…]
Assay conditions used are described below: • Assay Buffer: JAK Kinase Buffer: 50 mM Hepes [pH 7.2], 10 mM MgCl2, 1 mM DTT, 1 mg/ml BSA. The assay was carried out in this buffer. • Assay Format The kinase activity of all three JAK kinases was measured using a radioactive, end-point assay and with trace amounts of ^33P-ATP. The assays were carried out in 96-well polypropylene plates. Experimental Method:
All concentrations were final in the reaction mixture and all incubations were carried at room temperature. Assay steps are described below: • 1) Compounds were serially diluted in 100% DMSO typically at a 10× starting concentration of 1 mM. Final concentration of DMSO in the reaction was 10%. • 2) Compounds were preincubated with enzyme (0.5 nM JAK3 (commercially available), 0.2 nM JAK3 (prepared), 1 nM JAK2, 5 nM JAK1) for 10 minutes. • 3) Reactions were initiated by the addition of a cocktail of the two substrates (ATP and peptide premixed in the JAK Kinase Buffer). In the JAK2/JAK3 assays, ATP and the peptide were used at concentrations of 1.5 uM and 50 uM, respectively. JAK1 assay was carried out at an ATP concentration of 10 uM and a peptide concentration of 50 uM. • 4) The duration of the assay for JAK2 and JAK3 is 20 minutes. JAK1 assay was carried out for 40 minutes. With all three enzymes, reactions were terminated by the addition of 0.5M EDTA to a final concentration of 100 mM. • 5) 25 ul of terminated reactions were transferred to 150 ul of a 7.5% (v/v) slurry of streptavidin-coated sepharose beads in MgCl2- and CaCl2-free 1× Phosphate Buffered Saline containing 50 mM of EDTA in 96-well, 1.2 um MultiScreen-BV filter plates. • 6) After a 30-minute incubation, the beads were washed under vacuum with the following buffers: • a. 3 to 4 washes with 200 ul of 2M NaCl. • b. 3 to 4 washes with 200 ul of 2M NaCl plus 1% (v/v) phosphoric acid. • c. 1 wash with water. • 7) Washed plates were dried in a 60° C. oven for between 1 to 2 hours. • 8) 70 ul of Microscint 20 scintillation fluid was added to each well of filter plates and after at least 30 minutes of incubation, radioactive counts were measured in a Perkinelmer microplate scintillation counter.

T1 sequence (P52333 810-1124): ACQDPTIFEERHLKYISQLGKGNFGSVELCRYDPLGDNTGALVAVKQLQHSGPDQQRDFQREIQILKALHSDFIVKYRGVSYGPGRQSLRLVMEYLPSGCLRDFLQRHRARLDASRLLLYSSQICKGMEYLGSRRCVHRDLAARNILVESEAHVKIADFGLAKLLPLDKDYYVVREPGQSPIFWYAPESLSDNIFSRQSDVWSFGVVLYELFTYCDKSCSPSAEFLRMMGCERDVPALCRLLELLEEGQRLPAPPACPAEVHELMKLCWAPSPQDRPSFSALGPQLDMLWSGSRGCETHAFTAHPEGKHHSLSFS

Row | melting point [°C] | pIC50 [1] | SMILES
1 | 215 to 220 | 6.54 | NC(=O)CNC(=O)c1c[nH]c2ncc(C3CC3)nc12 [Compound I-1, 2-Cyclopropyl-5H-pyrrolo[2,3-b]pyrazine-7-carboxylic acid carbamoylmethyl-amide]
2 | 230 to 232 | 6.70 | CC(CC(=O)NCC(F)(F)F)NC(=O)c1c[nH]c2ncc(C3CC3)nc12 (stereo not shown) [Compound I-2, 2-Cyclopropyl-5H-pyrrolo[2,3-b]pyrazine-7-carboxylic acid [1-methyl-2-(2,2,2-trifluoro-ethylcarbamoyl)-ethyl]-amide]
3 | 182 to 184 | 6.04 | CCNC(=O)CC(C)NC(=O)c1c[nH]c2ncc(C3CC3)nc12 (stereo not shown) [Compound I-3, 2-Cyclopropyl-5H-pyrrolo[2,3-b]pyrazine-7-carboxylic acid (2-ethylcarbamoyl-1-methyl-ethyl)-amide]
4 | 198 to 200 | 6.08 | CCCNC(=O)CC(C)NC(=O)c1c[nH]c2ncc(C3CC3)nc12 (stereo not shown) [Compound I-4, 2-Cyclopropyl-5H-pyrrolo[2,3-b]pyrazine-7-carboxylic acid (1-methyl-2-propylcarbamoyl-ethyl)-amide]
5 | 236 to 238 | 6.01 | CC(CC(=O)NC1CC1)NC(=O)c1c[nH]c2ncc(C3CC3)nc12 (stereo not shown) [Compound I-5, 2-Cyclopropyl-5H-pyrrolo[2,3-b]pyrazine-7-carboxylic acid (2-cyclopropylcarbamoyl-1-methyl-ethyl)-amide]
6 | – | 6.95 | C[C@@H](NC(=O)c1c[nH]c2ncc(C3CC3)nc12)C(=O)N(C)C [Compound I-6, 2-Cyclopropyl-5H-pyrrolo[2,3-b]pyrazine-7-carboxylic acid ((R)-1-dimethylcarbamoyl-ethyl)-amide]
7 | 222 to 224 | 7.17 | CC(C)(C(N)=O)C(NC(=O)c1c[nH]c2ncc(C3CC3)nc12)C1CC1 (stereo not shown) [Compound I-7, 2-Cyclopropyl-5H-pyrrolo[2,3-b]pyrazine-7-carboxylic acid (2-carbamoyl-1-cyclopropyl-2-methyl-propyl)-amide]
8 | – | 7.40 | C[C@@H](NC(=O)c1c[nH]c2ncc(C3CC3)nc12)C(=O)N(C)CC#N [Compound I-8, 2-Cyclopropyl-5H-pyrrolo[2,3-b]pyrazine-7-carboxylic acid [(R)-1-(cyanomethyl-methyl-carbamoyl)-ethyl]-amide]
9 | – | 5.91 | C[C@H](NC(=O)c1c[nH]c2ncc(C3CC3)nc12)C(=O)N(C)C [Compound I-9, 2-Cyclopropyl-5H-pyrrolo[2,3-b]pyrazine-7-carboxylic acid ((S)-1-dimethylcarbamoyl-ethyl)-amide]
10 | – | 7.02 | CC(C)C[C@@H](NC(=O)c1c[nH]c2ncc(C3CC3)nc12)C(=O)N(C)C [Compound I-10, 2-Cyclopropyl-5H-pyrrolo[2,3-b]pyrazine-7-carboxylic acid ((R)-1-dimethylcarbamoyl-3-methyl-butyl)-amide]
11 | – | 6.50 | O=C(N[C@@H]1CCCNC1=O)c1c[nH]c2ncc(C3CC3)nc12 [Compound I-11, 2-Cyclopropyl-5H-pyrrolo[2,3-b]pyrazine-7-carboxylic acid ((R)-2-oxo-piperidin-3-yl)-amide]
12 | – | 6.75 | CN1CCC[C@@H](NC(=O)c2c[nH]c3ncc(C4CC4)nc23)C1=O [Compound I-12, 2-Cyclopropyl-5H-pyrrolo[2,3-b]pyrazine-7-carboxylic acid ((R)-1-methyl-2-oxo-piperidin-3-yl)-amide]
13 | – | 6.86 | N#CCCN1CCC[C@@H](NC(=O)c2c[nH]c3ncc(C4CC4)nc23)C1=O [Compound I-13, 2-Cyclopropyl-5H-pyrrolo[2,3-b]pyrazine-7-carboxylic acid [(R)-1-(2-cyano-ethyl)-2-oxo-piperidin-3-yl]-amide]
